These results are taken from paper PMC10020421 (Pharmacology, biochemistry, and behavior, 2023).

The structures appear in SMILES notation. Where two headings read alike, the source gives them in different places. A value given as a limit tells only on which side of the number the result lay.

For data set [1], the system named is myc-h5HT1a and 3HA-hCB1. In kind it is cell-based, human. Conditions: 5HT1a/CB1 cell line.
Data set [2] addresses 3HA-hCB1 (Homo sapiens, UniProt P21554). Nature of the data set: CAMYEL BRET cAMP signalling assay, HEK cells expressing CB1 alone. Format: cell-based. The note with it: for cAMP response in the cell line expressing only CB1: CB1-alone HEK line, 5 μM forskolin; for Emax (% inhib of Fsk), ± SEM / pEC50 ± SEM: CB1 cell line. On the technique in general: Bioluminescence resonance energy transfer reports proximity on the nanometre scale.

Data set [3] is described as follows: AMB-FUBINACA metabolism in human liver microsomes. In kind it is in vitro ADME. Conditions: pFPP 0.59, 1.18, 2.36 μg/ml.
For data set [4], the system named is C57BL/6 mice. Nature of the data set: THC drug discrimination in mice. The note with it: for Effect on response rates compared to vehicle: alone or in combination with 3 mg/kg pFPP, either sex; for AMB-FUBINACA ED50 (95% confidence limits), + Saline: with saline. Format: in vivo, mouse.
Data set [5] can be described thus: AMB-FUBINACA metabolism in rat liver microsomes. In kind it is in vitro ADME. The note with it: pFPP 0.59, 1.18, 2.36 μg/ml. (Microsomes from liver hold many membrane-bound enzymes, among them those of drug oxidation.)
Data set [6] deals with T1, myc-h5HT1a and 3HA-hCB1 (Homo sapiens, UniProt P08908).
T1 sequence (P08908 1-422): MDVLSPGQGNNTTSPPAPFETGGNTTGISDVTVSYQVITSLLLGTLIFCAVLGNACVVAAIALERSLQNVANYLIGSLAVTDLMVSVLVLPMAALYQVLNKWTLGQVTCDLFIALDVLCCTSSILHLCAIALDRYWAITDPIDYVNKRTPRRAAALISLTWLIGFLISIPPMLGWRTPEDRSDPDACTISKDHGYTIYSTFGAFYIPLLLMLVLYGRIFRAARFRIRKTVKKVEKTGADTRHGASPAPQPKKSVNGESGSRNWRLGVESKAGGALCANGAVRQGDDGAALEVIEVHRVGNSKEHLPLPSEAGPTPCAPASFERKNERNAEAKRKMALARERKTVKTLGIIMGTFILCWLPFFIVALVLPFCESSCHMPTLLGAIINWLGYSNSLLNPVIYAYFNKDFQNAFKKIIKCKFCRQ
In kind it is cell-based. Conditions: 5HT1a/CB1 cell line, in the presence of 31.6 nM 8OH-DPAT.

For data set [7], the target named is T2, myc-h5HT1a (Homo sapiens, UniProt P08908).
T2 sequence (P08908 1-422): T1 sequence (P08908 1-422)
Kind of data set: CAMYEL BRET cAMP signalling assay, HEK cells expressing 5HT1a alone. Format: cell-based. Conditions: 5HT1a-alone cell line, in the presence of 31.6 nM 8OH-DPAT.

The subject of data set [8] is Long Evans rats. Kind of data set: Plethysmography and telemetry in rats.
The target of data set [9] is 5HT1a. The note with it: ref Scherman et al., 1988; cited from earlier work.
[10] abbreviates: inhibition of 5 μM forskolin-induced cAMP, drug alone.

3HA-hCB1, sequence (P21554 whole entry): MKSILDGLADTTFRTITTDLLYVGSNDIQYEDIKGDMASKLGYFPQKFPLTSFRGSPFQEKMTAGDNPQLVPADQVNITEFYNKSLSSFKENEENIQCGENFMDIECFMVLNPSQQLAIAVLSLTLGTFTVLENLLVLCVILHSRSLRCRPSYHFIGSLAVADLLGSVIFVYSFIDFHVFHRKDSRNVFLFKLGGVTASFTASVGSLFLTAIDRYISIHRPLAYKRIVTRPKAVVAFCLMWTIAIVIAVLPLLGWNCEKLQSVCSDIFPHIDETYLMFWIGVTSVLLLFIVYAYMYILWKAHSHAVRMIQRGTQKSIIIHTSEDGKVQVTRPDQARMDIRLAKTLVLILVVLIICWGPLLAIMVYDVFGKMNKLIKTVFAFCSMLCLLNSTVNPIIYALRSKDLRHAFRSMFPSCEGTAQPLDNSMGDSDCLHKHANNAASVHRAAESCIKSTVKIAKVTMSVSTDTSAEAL

Regarding `CCCN(CCC)C1CCc2cccc(O)c2C1` (centres unmarked) [8OH-DPAT, 8-hydroxy DPAT], the “Emax (% inhib of Fsk), ± SEM” value in data set [1] (drug alone) is given as 66.6 ± 1.3 % inhib of Fsk. For the same compound, the “pEC50 ± SEM” value in [1] (setting [10]) came to 8.39 ± 0.21. Also, the “cAMP response in the cell line expressing only CB1” value in [2] is given as “without showing activity”.
Regarding `Fc1ccc(N2CCNCC2)cc1` [pFPP, para-fluorophenylpiperazine], the “Effect on AMB-FUBINACA metabolism” value in [3] is “not altered by any concentration of pFPP”. In [4] (3 mg/kg pFPP by itself), the “Cannabimimetic (THC-like discriminative stimulus) effects” value is on record as “did not produce cannabimimetic effects by itself”. Further, the “Effect on potency of THC-like discriminative stimulus effects of THC or AMB-FUBINACA” value in data set [4] (3 mg/kg pFPP co-administered) was “nor did it alter the potency”. The “Effect on response rates” value in data set [4] (10 mg/kg pFPP alone, probe tests, data not shown) was “substantial decreases in response rates”. The “Effect on AMB-FUBINACA metabolism” value in data set [5] was “not altered by any concentration of pFPP”. For the same compound, the “pEC50 ± SEM” value in data set [1] (setting [10]) is reported as ~5.20 ± 0.18^$. Moreover, the “Antagonism of cAMP inhibition by 8OH-DPAT” value in data set [6] is on record as “not observed to have any antagonist effect”. Also, in data set [2], the “cAMP response in the cell line expressing only CB1” value is “no pFPP response was observed”. The “Antagonism of cAMP inhibition by 8OH-DPAT” value in data set [7] was “not observed to have any antagonist effect”. Moreover, in data set [8] (10 mg/kg pFPP alone, i.p.), the “Effect on heart rate in comparison to vehicle” value is “only early and transient decreases”; the “Effect on respiratory minute volume across the post-injection session” value is “significant decrease”; the “Effect on temperature in comparison to vehicle” value is “only early and transient decreases”. Besides, the “Effect of co-administration on duration of AMB-FUBINACA heart rate decreases” value in data set [8] (10 mg/kg pFPP with 0.3 or 1 mg/kg AMB-FUBINACA) is “shortened the duration”. Besides, in [9], the “previously reported affinity (pKi)” value is recorded as 6.52.
As to `COC(=O)[C@@H](NC(=O)c1nn(Cc2ccc(F)cc2)c2ccccc12)C(C)C` [AMB-FUBINACA], the “Effect on response rates compared to vehicle” value in data set [4] is reported as “neither cannabinoid (alone or in combination with pFPP) significantly affected response rates”. The “Potency relative to THC in drug discrimination” value in [4] (both sexes, more potent than THC) is 49-70 fold. The “AMB-FUBINACA ED50 (95% confidence limits), + Saline” value in [4] (female mice, i.p.) was 0.03 mg/kg (0.006-0.14); in data set [4] (male mice, i.p.) it was 0.03 mg/kg (0.007-0.14). Besides, the “Emax (% inhib of Fsk), ± SEM” value is reported as 59.4 ± 9.17 % inhib of Fsk in data set [1] (+ WAY100635 (1 μM)); 64.9 ± 3.5 % inhib of Fsk in data set [1] (+ pFPP (31.6 μM)); 61.0 ± 1.7 % inhib of Fsk in data set [1] (drug alone); 55.7 ± 5.78 % inhib of Fsk in data set [2] (+ WAY100635 (1 μM)); 57.9 ± 2.33 % inhib of Fsk in data set [2] (+ pFPP (31.6 μM)); 60.8 ± 1.7 % inhib of Fsk in data set [2] (drug alone). The “pEC50 ± SEM” value in [1] (+ WAY100635 (1 μM)) worked out at 9.11 ± 0.16; in data set [1] (+ pFPP (31.6 μM)), 9.39 ± 0.11; in data set [1] (setting [10]), 9.21 ± 0.14; in data set [2] (+ WAY100635 (1 μM)), 9.65 ± 0.14; in data set [2] (+ pFPP (31.6 μM)), 9.70 ± 0.16; in data set [2] (setting [10]), 9.56 ± 0.09. In addition, in [8] (0.3 mg/kg AMB-FUBINACA alone), the “Duration of decreases in heart rate” value is reported as “approximately half of the post-injection session”. Also, the “Effect on respiratory minute volume” value is given as “transient decrease” in [8] (0.3 mg/kg AMB-FUBINACA alone, early in the session); “significantly decreased minute volume” in data set [8] (1 mg/kg AMB-FUBINACA alone and with 10 mg/kg pFPP, part or all of the post-injection session). For the same compound, the “Time until which significant hypothermia continued” value in data set [8] (0.3 mg/kg AMB-FUBINACA combined with 10 mg/kg pFPP) turned out to be 165 min. In addition, the “Time after injection by which hypothermic effect dissipated” value in [8] (0.3 mg/kg AMB-FUBINACA i.p. alone) is given as not above 135 min. Besides, the “Duration of significant decreases in heart rate” value in [8] (1 mg/kg AMB-FUBINACA alone) was “during most of the post-injection session”. The “Duration of significant hypothermia” value in data set [8] (1 mg/kg AMB-FUBINACA combined with 10 mg/kg pFPP) is given as “throughout the session”. Further, in data set [8] (1 mg/kg AMB-FUBINACA i.p. alone), the “Duration of hypothermic effect” value is “endured for the entire 240-min post-injection measurement period”. The Effect on temperature entry in data set [8] (0.03 and 0.1 mg/kg AMB-FUBINACA i.p.) was “no significant effect”. Besides, in [8] (0.3 and 1 mg/kg AMB-FUBINACA combined with 10 mg/kg pFPP, vs pFPP alone), the “Onset of significant hypothermic effect post-injection” value stood at 75 min. In addition, the “Effect on temperature vs vehicle/saline” value in data set [8] (0.3 and 1 mg/kg AMB-FUBINACA i.p. alone, one or more post-injection time points) is given as “produced hypothermia”. Also, in [8] (0.3 and 1 mg/kg AMB-FUBINACA i.p., alone or with 10 mg/kg pFPP), the “Effect on heart rate” value is “decreased heart rate”.
`CCCCCc1cc(O)c2c(c1)OC(C)(C)[C@@H]1CCC(C)=C[C@@H]21` [THC, Δ^9-tetrahydrocannabinol]: the “Effect on response rates compared to vehicle” value in data set [4] was “neither cannabinoid (alone or in combination with pFPP) significantly affected response rates”. Moreover, the “THC ED50 (95% confidence limits), Alone” value in [4] (female mice, i.p., trained to discriminate 5.6 mg/kg THC from vehicle) is 1.46 mg/kg (0.62-3.40).
